Data taken from PubChem BioAssay (NCI).
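Method: 48-hour compound exposure of cells in 96-well plates, five concentrations, linear interpolation of endpoints. GI50 is the concentration that inhibits growth by half. TGI denotes the concentration required for complete inhibition of growth.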

Assays:
Experiment in all cases: NCI anticancer screen, dose series, 48 h
SF-539 CNS = system: SF-539 CNS
SF-295 CNS = system: SF-295 CNS
SW-620 colon = system: SW-620 colon
NCI/ADR-RES ovarian = system: NCI/ADR-RES ovarian
HOP-92 NSCLC = system: HOP-92 NSCLC
HOP-62 NSCLC = system: HOP-62 NSCLC
M14 melanoma = system: M14 melanoma
OVCAR-4 ovarian = system: OVCAR-4 ovarian
NCI-H460 lung = system: NCI-H460 lung
KM12 colon = system: KM12 colon

| SMILES | GI50 (SF-539 CNS) [µM] | TGI (SF-539 CNS) [µM] | GI50 (SF-295 CNS) [µM] | TGI (SF-295 CNS) [µM] | GI50 (SW-620 colon) [µM] | TGI (SW-620 colon) [µM] | GI50 (NCI/ADR-RES ovarian) [µM] | TGI (NCI/ADR-RES ovarian) [µM] | GI50 (HOP-92 NSCLC) [µM] | TGI (HOP-92 NSCLC) [µM] | GI50 (HOP-62 NSCLC) [µM] | TGI (HOP-62 NSCLC) [µM] | GI50 (M14 melanoma) [µM] | TGI (M14 melanoma) [µM] | GI50 (OVCAR-4 ovarian) [µM] | TGI (OVCAR-4 ovarian) [µM] | GI50 (NCI-H460 lung) [µM] | TGI (NCI-H460 lung) [µM] | GI50 (KM12 colon) [µM] | TGI (KM12 colon) [µM] |
| --- | --- | --- | --- | --- | --- | --- | --- | --- | --- | --- | --- | --- | --- | --- | --- | --- | --- | --- | --- | --- |
| COC(=O)c1ccc(NC(=O)c2ccc(NC3=C(Cl)C(=O)N(Cc4ccccc4)C3=O)cc2)cc1 | 20.7 | 39.4 | 10.2 | 22 | 15.1 | 33 | 14 | 27 | 12.8 | 25.4 | 11.1 | 23.1 | 17.1 | 30.8 | 27 | 60.9 | 27.3 | > 100 | 25.7 | > 100 |
| C(=C\c1ccncc1)/c1ccncc1 | > 100 | > 100 | > 100 | > 100 | > 100 | > 100 | > 100 | > 100 | 74.9 | > 100 | > 100 | > 100 | > 100 | > 100 | > 100 | > 100 | > 100 | > 100 | > 100 | > 100 |
| COc1cc2c3c(n(CCN4CCOCC4)c(=O)c2cc1OC)-c1ccccc1C3=O | > 100 | > 100 | 34.6 | > 100 | 89.2 | > 100 | > 100 | > 100 | > 100 | > 100 | 89.4 | > 100 | > 100 | > 100 | > 100 | > 100 | 45.1 | > 100 | > 100 | > 100 |
| CN(C)CC1C(=O)O[C@H]2[C@H]1CC/C(COC(=O)NCc1ccc(Cn3c(=O)sn(CCCI)c3=O)cc1)=C\CC[C@@]1(C)O[C@@H]21 (stereo not given in full) | 2.57 | 8.75 | 7.43 | 14.5 | 0.998 | 2.09 | 10.2 | 30.1 | 0.786 | 2.56 | 4.23 | 12.7 | 0.893 | 1.92 | 0.843 | 1.77 | 7.77 | 17.2 | 7.71 | 15.7 |
| Cn1cc(C2=C(c3cc[nH]c3)C(=O)NC2=O)c2ccccc21 | > 25 | > 25 | > 25 | > 25 | > 25 | > 25 | > 25 | > 25 | > 25 | > 25 | > 25 | > 25 | > 25 | > 25 | > 25 | > 25 | > 25 | > 25 | 25 | > 25 |
| Cc1nc2sc(C(=O)Nc3ccccc3)c(N)c2cc1C(O)c1ccccc1 (stereo not given) | 0.219 | 0.638 | 0.252 | 4.29 | 0.283 | > 100 | 0.314 | 28.8 | 3.56 | 54.5 | 0.448 | > 53.8 | 0.182 | 15.2 | 0.833 | > 100 | 0.329 | 1.73 | 0.344 | > 44 |
